# Test results taken from US6608082B1, “Treatment of erectile dysfunction using isoquinoline compound melanocortin receptor ligands” (Lion Bioscience AG, priority 1998, dated 2003).
# Read-outs that look alike come from different tables or passages of the source.
# Assays:
# MCR-1 = biological target: T1, MCR-1 (Homo sapiens, UniProt Q01726); test: Melanocortin receptor binding assay, competition with 125I-HP 467, HEK 293 cells expressing hMCR-1; conditions: for IC50: read-out: MC-1 IC50; for % Disp. MC-1 10 μM: displacement of 125I-HP 467 at 10 μM isoquinoline compound
# T1 construct: expressed in transfected cells; host or cells: HEK 293
# T1 sequence (Q01726 whole entry): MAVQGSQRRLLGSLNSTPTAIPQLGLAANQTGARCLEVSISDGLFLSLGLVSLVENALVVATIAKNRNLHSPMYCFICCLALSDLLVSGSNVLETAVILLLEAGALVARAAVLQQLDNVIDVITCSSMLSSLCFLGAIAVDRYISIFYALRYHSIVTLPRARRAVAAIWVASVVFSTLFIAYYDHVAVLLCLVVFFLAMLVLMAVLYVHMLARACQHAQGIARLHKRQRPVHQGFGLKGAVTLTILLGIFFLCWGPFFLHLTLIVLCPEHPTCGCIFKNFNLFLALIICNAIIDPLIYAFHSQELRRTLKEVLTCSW
# Summary of the method: (§1)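 Intact-cell competition binding, 2.5 hr at 37 °C, in PBS/10% calf serum/1 mM CaCl2; hMCR-4 cells at 4×10^3 per tube, hMCR-1 cells at 2×10^4 per tube. Filtration on BSA/CaCl2-soaked GF/B, cold 50 mM Tris pH 7.4 washes, scintillation count.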
# MCR-4 = biological target: T2, MCR-4 (Homo sapiens, UniProt P32245); test: Melanocortin receptor binding assay, competition with 125I-HP 467, HEK 293 cells expressing hMCR-4; conditions: for IC50: read-out: MC-4 IC50
# T2 construct: expressed in transfected cells; host or cells: HEK 293
# T2 sequence (P32245 whole entry): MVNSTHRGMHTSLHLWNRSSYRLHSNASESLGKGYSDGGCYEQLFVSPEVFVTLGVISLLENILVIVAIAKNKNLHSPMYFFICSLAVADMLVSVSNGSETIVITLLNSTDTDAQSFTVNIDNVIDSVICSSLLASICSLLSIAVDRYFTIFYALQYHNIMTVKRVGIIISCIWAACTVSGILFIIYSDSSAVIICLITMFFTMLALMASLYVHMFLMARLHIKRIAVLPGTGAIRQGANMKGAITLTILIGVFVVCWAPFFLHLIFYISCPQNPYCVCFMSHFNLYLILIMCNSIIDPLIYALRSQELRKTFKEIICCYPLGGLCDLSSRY
# Summary of the method: as §1
# [1] = TRG 2405 section, inhibition of binding of 125I-HP 467, HEK 293 cells expressing MCR-1
# [2] = TRG 2405 section, inhibition of binding of 125I-HP 467, HEK 293 cells expressing MCR-4
# [3] = TRG 2406 and TRG 2407 libraries, inhibition of binding of 125I-HP 467
SMILES,IC50 (MCR-1; [1]) [µM],% Disp. MC-1 10 μM (MCR-1; first of duplicate) [%],% Disp. MC-1 10 μM (MCR-1; second of duplicate) [%],IC50 (MCR-4; [2]) [µM],IC50 (MCR-1; [3]) [µM],IC50 (MCR-4; [3]) [µM],MC-4 IC50 (MCR-4; [3])
Cc1cccc(C2C(CNC3CCCCC3)c3ccccc3CN2CCN)c1 (stereo not drawn) [TRG 2405-47],14.3,42.3,45.8,18.9,–,–,–
NCCN1Cc2ccccc2C(CNC2CCCCC2)C1c1ccc([N+](=O)[O-])o1 (stereo not drawn) [TRG 2405-80],8.66,30.8,52.9,20.8,–,–,–
NCCN1Cc2ccccc2C(CNC2CCCCC2)C1c1ccc[nH]1 (stereo not drawn) [TRG 2405-85],5.98,57.1,59.8,33.5,–,–,–
CNC(CN)CN1Cc2ccccc2C(CNC2CCCCC2)C1c1ccc(Cl)cc1Cl (stereo not drawn) [TRG 2405-100],12.2,54.2,59.6,11.2,–,–,–
CNC(CN)CN1Cc2ccccc2C(CNC2CCCCC2)C1c1ccccn1 (stereo not drawn) [TRG 2405-111],7.48,57.2,51,17.1,–,–,–
CNC(CN)CN1Cc2ccccc2C(CNC2CCCCC2)C1c1cccc(Oc2ccc(OC)cc2)c1 (stereo not drawn) [TRG 2405-124],5.16,65.2,63,3.1,–,–,–
CNC(CN)CN1Cc2ccccc2C(CNC2CCCCC2)C1c1ccc(F)c(Br)c1 (stereo not drawn) [TRG 2405-126],5.34,52.4,58.4,12.8,–,–,–
CNC(CN)CN1Cc2ccccc2C(CNC2CCCCC2)C1c1cccc(O)c1 (stereo not drawn) [TRG 2405-133],20,37.7,44.1,12.4,–,–,–
CNC(CN)CN1Cc2ccccc2C(CNC2CCCCC2)C1c1ccc(C(F)(F)F)cc1 (stereo not drawn) [TRG 2405-148],10.3,63.7,57.4,8.95,–,–,–
CNC(CN)CN1Cc2ccccc2C(CNC2CCCCC2)C1c1ccc([N+](=O)[O-])o1 (stereo not drawn) [TRG 2405-170],4.81,68.4,57.5,10.2,–,–,–
CNC(CN)CCCCN1Cc2ccccc2C(CNCc2ccccc2O)C1c1cccn1C (stereo not drawn) [TRG 2406-1],–,–,–,–,3.79,5.85,–
NCCN1Cc2ccccc2C(CNCc2ccccc2O)C1c1cccc(Oc2ccc(Cl)c(Cl)c2)c1 (stereo not drawn) [TRG 2406-2],–,–,–,–,7.86,3.86,–
CNC(CN)CN1Cc2ccccc2C(CNCc2ccccc2O)C1c1cccc(Oc2ccc(Cl)c(Cl)c2)c1 (stereo not drawn) [TRG 2406-3],–,–,–,–,12.3,9.69,–
COc1ccc(Oc2cccc(C3C(CNCc4ccccc4O)c4ccccc4CN3CCN)c2)cc1 (stereo not drawn) [TRG 2406-5],–,–,–,–,6.16,3.41,–
CNC(CN)CN1Cc2ccccc2C(CNCc2ccccc2O)C1c1cccc(Oc2ccc(OC)cc2)c1 (stereo not drawn) [TRG 2406-6],–,–,–,–,3.17,1.36,–
CNC(CN)CCCCN1Cc2ccccc2C(CNCc2ccccc2O)C1c1cccc(Oc2ccc(OC)cc2)c1 (stereo not drawn) [TRG 2406-7],–,–,–,–,1.23,1.74,–
NCCN1Cc2ccccc2C(CNCc2ccccc2O)C1c1cccc(Oc2ccccc2)c1 (stereo not drawn) [TRG 2406-8],–,–,–,–,7.48,5.67,–
CNC(CN)CN1Cc2ccccc2C(CNCc2ccccc2O)C1c1cccc(Oc2ccccc2)c1 (stereo not drawn) [TRG 2406-9],–,–,–,–,3.66,2.1,–
CNC(CN)CCCCN1Cc2ccccc2C(CNCc2ccccc2O)C1c1cccc(Oc2ccccc2)c1 (stereo not drawn) [TRG 2406-10],–,–,–,–,0.85,0.26,–
CNC(CN)CN1Cc2ccccc2C(CNCc2ccccc2O)C1c1ccc(Oc2ccccc2)cc1 (stereo not drawn) [TRG 2406-12],–,–,–,–,5.44,2.62,–
CNC(CN)CCCCN1Cc2ccccc2C(CNCc2ccccc2O)C1c1ccc(Oc2ccccc2)cc1 (stereo not drawn) [TRG 2406-13],–,–,–,–,0.18,1.29,–
CCCOc1ccc(C2C(CNCc3ccccc3O)c3ccccc3CN2CCN)cc1 (stereo not drawn) [TRG 2406-14],–,–,–,–,8.31,5.36,–

SMILES,IC50 (MCR-1; [1]) [µM],% Disp. MC-1 10 μM (MCR-1; first of duplicate) [%],% Disp. MC-1 10 μM (MCR-1; second of duplicate) [%],IC50 (MCR-4; [2]) [µM],IC50 (MCR-1; [3]) [µM],IC50 (MCR-4; [3]) [µM],MC-4 IC50 (MCR-4; [3])
CCCOc1ccc(C2C(CNCc3ccccc3O)c3ccccc3CN2CC(CN)NC)cc1 (stereo not drawn) [TRG 2406-15],–,–,–,–,7.22,2.75,–
CCCOc1ccc(C2C(CNCc3ccccc3O)c3ccccc3CN2CCCCC(CN)NC)cc1 (stereo not drawn) [TRG 2406-16],–,–,–,–,2.12,11.6,–
CCn1c2ccccc2c2cc(C3C(CNCc4ccccc4O)c4ccccc4CN3CCN)ccc21 (stereo not drawn) [TRG 2406-20],–,–,–,–,10.8,3.3,–
CCn1c2ccccc2c2cc(C3C(CNCc4ccccc4O)c4ccccc4CN3CC(CN)NC)ccc21 (stereo not drawn) [TRG 2406-21],–,–,–,–,6.25,1.53,–
CCn1c2ccccc2c2cc(C3C(CNCc4ccccc4O)c4ccccc4CN3CCCCC(CN)NC)ccc21 (stereo not drawn) [TRG 2406-22],–,–,–,–,2.12,1.79,–
CNC(CN)CCCCN1Cc2ccccc2C(CN(C)c2ccccc2)C1c1ccc(Cl)cc1Cl (stereo not drawn) [TRG 2407-2],–,–,–,–,5.75,6.26,–
CNC(CN)CCCCN1Cc2ccccc2C(CNc2ccccc2Cl)C1c1ccc(Cl)cc1Cl (stereo not drawn) [TRG 2407-3],–,–,–,–,8.46,9.45,–
CNC(CN)CCCCN1Cc2ccccc2C(CNc2ccccc2OC)C1c1ccc(Cl)cc1Cl (stereo not drawn) [TRG 2407-4],–,–,–,–,3.65,4.12,–
CNC(CN)CCCCN1Cc2ccccc2C(CNc2cccc(Cl)c2)C1c1ccc(Cl)cc1Cl (stereo not drawn) [TRG 2407-5],–,–,–,–,8.82,14.7,–
CCOc1cccc(NCC2c3ccccc3CN(CCCCC(CN)NC)C2c2ccc(Cl)cc2Cl)c1 (stereo not drawn) [TRG 2407-6],–,–,–,–,3.42,6.97,–
CNC(CN)CCCCN1Cc2ccccc2C(CNc2cccc(O)c2)C1c1ccc(Cl)cc1Cl (stereo not drawn) [TRG 2407-7],–,–,–,–,4.38,–,no fit
CNC(CN)CCCCN1Cc2ccccc2C(CNc2ccc(Cl)cc2)C1c1ccc(Cl)cc1Cl (stereo not drawn) [TRG 2407-8],–,–,–,–,10.9,21.2,–
CNC(CN)CCCCN1Cc2ccccc2C(CNc2ccc(OC)cc2)C1c1ccc(Cl)cc1Cl (stereo not drawn) [TRG 2407-9],–,–,–,–,2.53,6.22,–
CNC(CN)CCCCN1Cc2ccccc2C(CNCc2ccccc2)C1c1ccc(Cl)cc1Cl (stereo not drawn) [TRG 2407-10],–,–,–,–,4.13,3.85,–
CNC(CN)CCCCN1Cc2ccccc2C(CN(C)Cc2ccccc2)C1c1ccc(Cl)cc1Cl (stereo not drawn) [TRG 2407-11],–,–,–,–,5.31,6.17,–
CNC(CN)CCCCN1Cc2ccccc2C(CNCc2ccccc2Cl)C1c1ccc(Cl)cc1Cl (stereo not drawn) [TRG 2407-12],–,–,–,–,2.7,3.23,–
CNC(CN)CCCCN1Cc2ccccc2C(CNCc2ccccc2C(F)(F)F)C1c1ccc(Cl)cc1Cl (stereo not drawn) [TRG 2407-13],–,–,–,–,8.5,9.25,–
CCOc1ccccc1CNCC1c2ccccc2CN(CCCCC(CN)NC)C1c1ccc(Cl)cc1Cl (stereo not drawn) [TRG 2407-15],–,–,–,–,1.2,0.78,–
CNC(CN)CCCCN1Cc2ccccc2C(CNCc2cccc(OC)c2)C1c1ccc(Cl)cc1Cl (stereo not drawn) [TRG 2407-16],–,–,–,–,5.83,1.81,–
CNC(CN)CCCCN1Cc2ccccc2C(CNCc2cccc(C(F)(F)F)c2)C1c1ccc(Cl)cc1Cl (stereo not drawn) [TRG 2407-17],–,–,–,–,10.1,9.22,–
CNC(CN)CCCCN1Cc2ccccc2C(CNCc2ccc(Cl)cc2)C1c1ccc(Cl)cc1Cl (stereo not drawn) [TRG 2407-18],–,–,–,–,3.31,2.83,–
CNC(CN)CCCCN1Cc2ccccc2C(CNCc2ccc(OC)cc2)C1c1ccc(Cl)cc1Cl (stereo not drawn) [TRG 2407-19],–,–,–,–,2.29,2.04,–
